This is an account of results in ChEMBL document CHEMBL2440076, “New triarylpyrazoles as broad-spectrum anticancer agents: design, synthesis, and biological evaluation” (Eur J Med Chem, 2013).

Type in all cases: functional
One assay deals with HCT-15. The experiment in a line: Growth inhibition of human HCT15 cells assessed as cell growth at 10 uM after 48 hrs by sulforhodamine B assay. Conditions: HCT-15, 48 h, read-out: Activity. In general terms: Sulforhodamine B stains cellular protein and so reports cell mass.
A further assay concerns NCI-H322M. The experiment in a line: Growth inhibition of human NCI-H322M cells assessed as cell growth at 10 uM after 48 hrs by sulforhodamine B assay. Conditions: read-out: Activity.
The next assay has as its system T47D. Briefly: Growth inhibition of human T47D cells assessed as cell growth at 10 uM after 48 hrs by sulforhodamine B assay. Conditions: read-out: Activity.
In another assay the test system is MDA-MB-468. The experiment in a line: Growth inhibition of human MDA-MB-468 cells assessed as cell growth at 10 uM after 48 hrs by sulforhodamine B assay. Conditions: MDA-MB-468, 48 h, read-out: Activity.
The next assay relates to OVCAR-3. Briefly: Growth inhibition of human OVCAR3 cells assessed as cell growth at 10 uM after 48 hrs by sulforhodamine B assay. Conditions: OVCAR-3, 48 h, read-out: Activity.
Another assay has as its system SF-539. Briefly: Growth inhibition of human SF539 cells assessed as cell growth at 10 uM after 48 hrs by sulforhodamine B assay. Conditions: SF-539, 48 h, read-out: Activity.
A further assay concerns SK-MEL-5. Briefly: Growth inhibition of human SK-MEL-5 cells assessed as cell growth at 10 uM after 48 hrs by sulforhodamine B assay. Conditions: SK-MEL-5, 48 h, read-out: Activity.
For the next assay, the system named is MDA-MB-435. Briefly: Growth inhibition of human MDA-MB-435 cells assessed as cell growth at 10 uM after 48 hrs by sulforhodamine B assay. Conditions: MDA-MB-435, 48 h, read-out: Activity.
Another assay has as its system LOX IMVI. The experiment in a line: Growth inhibition of human LOXIMVI cells assessed as cell growth at 10 uM after 48 hrs by sulforhodamine B assay. Conditions: read-out: Activity.
For another assay, the system named is TK-10. The experiment in a line: Growth inhibition of human TK10 cells assessed as cell growth at 10 uM after 48 hrs by sulforhodamine B assay. Conditions: TK-10, 48 h, read-out: Activity.
The test system of a further assay is RPMI-8226. The experiment in a line: Growth inhibition of human RPMI8226 cells assessed as cell growth at 10 uM after 48 hrs by sulforhodamine B assay. Conditions: RPMI-8226, 48 h, read-out: Activity.
A further assay relates to SF-268. Briefly: Growth inhibition of human SF268 cells assessed as cell growth at 10 uM after 48 hrs by sulforhodamine B assay. Conditions: SF-268, 48 h, read-out: Activity.
Another assay has as its system MOLT-4. The experiment in a line: Growth inhibition of human MOLT4 cells assessed as cell growth at 10 uM after 48 hrs by sulforhodamine B assay. Conditions: MOLT-4, 48 h, read-out: Activity.
The next assay relates to NCI-H460. The experiment in a line: Growth inhibition of human NCI-H460 cells assessed as cell growth at 10 uM after 48 hrs by sulforhodamine B assay. Conditions: NCI-H460, 48 h, read-out: Activity.
A further assay concerns IGROV-1. Briefly: Growth inhibition of human IGROV1 cells assessed as cell growth at 10 uM after 48 hrs by sulforhodamine B assay. Conditions: IGROV-1, 48 h, read-out: Activity.
The test system of a further assay is CCRF-CEM. Briefly: Growth inhibition of human CCRF-CEM cells assessed as cell growth at 10 uM after 48 hrs by sulforhodamine B assay. Conditions: read-out: Activity.
Assay [1] in a line: Growth inhibition of human Hs 578T cells assessed as cell growth at 10 uM after 48 hrs by sulforhodamine B assay. Conditions: read-out: Activity.

Each structure is given as a SMILES string.

For the compound `COc1cc(-c2nn(-c3cccc(NC(=O)c4ccc(Br)c(C)c4)c3)cc2-c2ccncc2)ccc1Cl`, the growth at 10 µM in the assay with HCT-15 turned out to be 67.8%; in the assay with NCI-H322M, 91.7%; in the assay with T47D, 70.3%; in the assay on MDA-MB-468 it was 83.5%; in the assay on OVCAR-3, 90.9%; in the assay on SF-539, 76.8%. Besides, the growth at 10 µM in the assay on SK-MEL-5 turned out to be 71%; in the assay on MDA-MB-435, 34.7%; with LOX IMVI, 75.4%; in the assay with TK-10, 91.3%; in the assay on RPMI-8226, 64.7%; in the assay with SF-268, 84.1%. Also, the growth at 10 µM was 68.7% with MOLT-4; 80.9% in the assay with NCI-H460; 76.2% in the assay on IGROV-1; 74.6% in the assay on CCRF-CEM; 74.9% in assay [1].
`COc1cc(-c2nn(-c3cccc(NC(=O)Nc4ccccc4)c3)cc2-c2ccncc2)ccc1Cl`: the growth at 10 µM with HCT-15 worked out at 84.5%; in the assay with NCI-H322M, 95.5%; with T47D, 75.6%; with MDA-MB-468, 83.4%; in the assay with OVCAR-3, 86.4%; in the assay on SF-539 it was 90%. Moreover, the growth at 10 µM is 79.9% with SK-MEL-5; 22.6% with MDA-MB-435; 85.4% with LOX IMVI; 116% in the assay with TK-10; 68% with RPMI-8226; 81.2% with SF-268. Also, the growth at 10 µM stood at 57% in the assay on MOLT-4; 93.7% in the assay on NCI-H460; 86.5% in the assay with IGROV-1; 83.3% in the assay on CCRF-CEM; 82.7% in [1].
Regarding `Cc1cc(C(=O)Nc2cccc(-n3cc(-c4ccncc4)c(-c4ccc(Cl)c(O)c4)n3)c2)ccc1Br`, the growth at 10 µM in the assay with HCT-15 was found to be 97.4%; in the assay on NCI-H322M, 107%; in the assay on T47D, 87.7%; with MDA-MB-468, 93.2%; in the assay on OVCAR-3, 104%; in the assay with SF-539 it was 95.5%. Besides, the growth at 10 µM amounted to 94.4% in the assay with SK-MEL-5; 93.4% in the assay on MDA-MB-435; 86.4% with LOX IMVI; 113% with TK-10; 92.1% in the assay on RPMI-8226; 104% with SF-268. In addition, the growth at 10 µM in the assay on MOLT-4 turned out to be 76.1%; in the assay with NCI-H460 it was 108%; with IGROV-1, 101%; with CCRF-CEM, 87.2%; in assay [1] it was 108%.
Consider `O=C(Nc1cccc(-n2cc(-c3ccncc3)c(-c3ccc(Cl)c(O)c3)n2)c1)c1ccc(Cl)c(C(F)(F)F)c1`, for which the growth at 10 µM was found to be 92.9% with HCT-15; 108% with NCI-H322M; 100% in the assay with T47D; 98.2% in the assay on MDA-MB-468; 95.8% in the assay on OVCAR-3; 94.7% in the assay with SF-539. Also, the growth at 10 µM with SK-MEL-5 was found to be 95.2%; in the assay on MDA-MB-435, 97.8%; with LOX IMVI, 91.3%; with TK-10, 119%; with RPMI-8226 it was 98.1%; in the assay with SF-268, 98.1%. The growth at 10 µM came to 79.5% in the assay with MOLT-4; 104% in the assay with NCI-H460; 98.4% in the assay on IGROV-1; 98.8% in the assay with CCRF-CEM; 91.9% in [1].
`O=C(Nc1cccc(-n2cc(-c3ccncc3)c(-c3ccc(Cl)c(O)c3)n2)c1)c1ccccc1`: the growth at 10 µM amounted to 58.2% in the assay on HCT-15; 89.2% with NCI-H322M; 73.9% in the assay with T47D; 64.1% in the assay with MDA-MB-468; 82.1% in the assay with OVCAR-3; 74.7% with SF-539. Further, the growth at 10 µM in the assay on SK-MEL-5 was 59.4%; in the assay on MDA-MB-435, 56.1%; in the assay with LOX IMVI, 68.5%; with TK-10, 109%; in the assay on RPMI-8226 it was 60.5%; in the assay on SF-268, 68.3%. The growth at 10 µM in the assay with MOLT-4 was 69.5%; in the assay on NCI-H460, 48.7%; with IGROV-1, 88%; with CCRF-CEM it was 67.5%; in [1], 48.4%.
